Experimental data from ChEMBL document CHEMBL4507311, “Data for DCP probe A-1155463” (2021).
Activity calls are given as the source filed them. No cut-off for these calls is given here.

How the values were obtained:
[1] = target: Sulfonylurea receptors; K-ATP channels (Rattus norvegicus) (UniProt Q63563+P70673+Q63664+Q09429); experiment: KATP channel Eurofins-Cerep binding assay; type: protein-complex assay; set-up: ligand concentration 0.1 nM; settings: filed as antagonist, Compound concentration 10.0 uM
[2] = target: Beta-1 adrenergic receptor (Homo sapiens) (UniProt P08588); experiment: Beta1 (h) Eurofins-Cerep binding assay; set-up: ligand concentration 0.3 nM; settings: filed as agonist, Compound concentration 10.0 uM
[3] = target: Adenosine receptor A2b (Homo sapiens) (UniProt P29275); experiment: A2B (h) Eurofins-Cerep binding assay; set-up: ligand concentration 5 nM; settings: filed as antagonist, Compound concentration 10.0 uM
[4] = target: Adenosine receptor A3 (Homo sapiens) (UniProt P0DMS8); experiment: A3 (h) Eurofins-Cerep binding assay; set-up: ligand concentration 0.15 nM; settings: filed as agonist, Compound concentration 10.0 uM
[5] = target: Kappa-type opioid receptor (Homo sapiens) (UniProt P41145); experiment: kappa (h) (KOP) Eurofins-Cerep binding assay; set-up: ligand concentration 0.5 nM; settings: filed as agonist, Compound concentration 10.0 uM
[6] = target: 5-hydroxytryptamine receptor 2B (Homo sapiens) (UniProt P41595); experiment: 5-HT2B (h) Eurofins-Cerep binding assay; set-up: ligand concentration 0.2 nM; settings: filed as agonist, Compound concentration 10.0 uM
Sequence of 5-hydroxytryptamine receptor 2B (Homo sapiens) (P41595 whole entry): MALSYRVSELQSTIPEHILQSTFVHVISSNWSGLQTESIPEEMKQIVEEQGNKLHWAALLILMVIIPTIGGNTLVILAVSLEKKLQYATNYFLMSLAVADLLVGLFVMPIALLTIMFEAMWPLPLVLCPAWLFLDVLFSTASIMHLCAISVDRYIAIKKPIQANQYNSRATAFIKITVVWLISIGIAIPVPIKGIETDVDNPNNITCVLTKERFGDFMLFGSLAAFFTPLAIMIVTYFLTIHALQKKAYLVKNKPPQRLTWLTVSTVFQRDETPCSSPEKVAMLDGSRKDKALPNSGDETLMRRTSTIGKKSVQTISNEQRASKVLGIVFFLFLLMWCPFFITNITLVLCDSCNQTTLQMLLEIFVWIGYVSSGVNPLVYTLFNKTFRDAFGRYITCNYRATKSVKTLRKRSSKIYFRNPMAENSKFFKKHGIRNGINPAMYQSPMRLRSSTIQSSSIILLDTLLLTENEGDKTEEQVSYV

[7] = target: Melatonin receptor type 1B (Homo sapiens) (UniProt P49286); experiment: MT2 (ML1B) (h) Eurofins-Cerep binding assay; set-up: ligand concentration 0.05 nM; settings: filed as agonist, Compound concentration 10.0 uM
Sequence of Melatonin receptor type 1B (Homo sapiens) (P49286 whole entry): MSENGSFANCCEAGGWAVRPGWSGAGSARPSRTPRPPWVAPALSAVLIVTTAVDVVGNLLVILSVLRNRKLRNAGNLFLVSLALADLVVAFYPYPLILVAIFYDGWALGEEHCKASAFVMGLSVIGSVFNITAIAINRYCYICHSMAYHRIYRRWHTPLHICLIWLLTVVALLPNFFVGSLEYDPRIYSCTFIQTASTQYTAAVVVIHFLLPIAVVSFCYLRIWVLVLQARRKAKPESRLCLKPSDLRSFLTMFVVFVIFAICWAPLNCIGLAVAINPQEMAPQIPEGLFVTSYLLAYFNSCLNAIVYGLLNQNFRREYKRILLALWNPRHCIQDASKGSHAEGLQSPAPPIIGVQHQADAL

[8] = target: 5-hydroxytryptamine receptor 4 (Homo sapiens) (UniProt Q13639); experiment: 5-HT4 e (h) Eurofins-Cerep binding assay; set-up: ligand concentration 0.3 nM; settings: filed as antagonist, Compound concentration 10.0 uM
Sequence of 5-hydroxytryptamine receptor 4 (Homo sapiens) (Q13639 whole entry): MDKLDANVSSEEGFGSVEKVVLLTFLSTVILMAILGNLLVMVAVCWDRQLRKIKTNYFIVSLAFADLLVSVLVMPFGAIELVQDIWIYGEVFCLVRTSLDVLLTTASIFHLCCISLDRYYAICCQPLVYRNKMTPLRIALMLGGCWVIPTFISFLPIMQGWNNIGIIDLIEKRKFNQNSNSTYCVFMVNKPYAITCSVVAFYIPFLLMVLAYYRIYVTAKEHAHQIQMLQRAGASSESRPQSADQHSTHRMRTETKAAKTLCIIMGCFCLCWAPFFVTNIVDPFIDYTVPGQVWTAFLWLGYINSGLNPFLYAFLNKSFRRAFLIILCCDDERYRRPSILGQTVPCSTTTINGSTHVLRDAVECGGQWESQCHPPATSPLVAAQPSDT

[9] = target: Muscarinic acetylcholine receptor M3 (Homo sapiens) (UniProt P20309); experiment: M3 (h) Eurofins-Cerep binding assay; set-up: ligand concentration 0.2 nM; settings: filed as antagonist, Compound concentration 10.0 uM
Sequence of Muscarinic acetylcholine receptor M3 (Homo sapiens) (P20309 whole entry, looked up): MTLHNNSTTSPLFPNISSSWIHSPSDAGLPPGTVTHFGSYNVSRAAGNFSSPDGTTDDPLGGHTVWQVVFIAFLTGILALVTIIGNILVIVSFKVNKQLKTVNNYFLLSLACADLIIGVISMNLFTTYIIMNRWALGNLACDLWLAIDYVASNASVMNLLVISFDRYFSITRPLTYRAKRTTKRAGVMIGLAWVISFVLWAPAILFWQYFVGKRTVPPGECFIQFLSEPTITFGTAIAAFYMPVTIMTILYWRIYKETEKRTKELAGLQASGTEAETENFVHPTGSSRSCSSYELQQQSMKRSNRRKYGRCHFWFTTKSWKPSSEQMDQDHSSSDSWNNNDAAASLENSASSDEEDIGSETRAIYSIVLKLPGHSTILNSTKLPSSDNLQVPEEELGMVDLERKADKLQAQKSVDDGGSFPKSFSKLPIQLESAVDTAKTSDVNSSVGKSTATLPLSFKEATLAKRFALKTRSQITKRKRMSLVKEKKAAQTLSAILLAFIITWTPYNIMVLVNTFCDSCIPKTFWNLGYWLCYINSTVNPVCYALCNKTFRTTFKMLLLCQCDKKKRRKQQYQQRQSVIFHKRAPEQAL

[10] = target: Calcitonin-gene-related peptide receptor, CALCRL/RAMP1 (Homo sapiens) (UniProt O60894+Q16602); experiment: CGRP (h) Eurofins-Cerep binding assay; type: protein-complex assay; set-up: ligand concentration 0.03 nM; settings: filed as agonist, Compound concentration 10.0 uM
[11] = target: Androgen receptor (Homo sapiens) (UniProt P10275); experiment: AR (h) Eurofins-Cerep binding assay; set-up: ligand concentration 1 nM; settings: filed as agonist, Compound concentration 10.0 uM
[12] = target: Acetylcholinesterase (Homo sapiens) (UniProt P22303); experiment: Acetylcholinesterase (h) Eurofins-Cerep enzyme and uptake assay; settings: Compound concentration 10.0 uM
Sequence of Acetylcholinesterase (Homo sapiens) (P22303 whole entry): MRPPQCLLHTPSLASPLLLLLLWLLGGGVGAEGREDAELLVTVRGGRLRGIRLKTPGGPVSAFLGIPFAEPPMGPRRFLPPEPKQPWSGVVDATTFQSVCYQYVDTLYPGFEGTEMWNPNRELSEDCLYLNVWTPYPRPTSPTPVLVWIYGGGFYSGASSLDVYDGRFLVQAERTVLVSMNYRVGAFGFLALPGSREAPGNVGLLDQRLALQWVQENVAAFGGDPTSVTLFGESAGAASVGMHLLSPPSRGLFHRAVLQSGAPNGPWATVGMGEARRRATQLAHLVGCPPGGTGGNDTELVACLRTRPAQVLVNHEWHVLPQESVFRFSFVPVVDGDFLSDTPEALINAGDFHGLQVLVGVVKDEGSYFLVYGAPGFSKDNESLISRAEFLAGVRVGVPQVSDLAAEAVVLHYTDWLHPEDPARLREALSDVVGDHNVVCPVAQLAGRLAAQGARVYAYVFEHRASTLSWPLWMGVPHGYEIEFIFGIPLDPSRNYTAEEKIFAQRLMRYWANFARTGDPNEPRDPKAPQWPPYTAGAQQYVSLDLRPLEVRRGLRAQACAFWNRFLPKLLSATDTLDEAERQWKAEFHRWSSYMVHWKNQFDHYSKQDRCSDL

[13] = target: Sodium-dependent serotonin transporter (Homo sapiens) (UniProt P31645); experiment: 5-HT transporter (h) Eurofins-Cerep binding assay; set-up: ligand concentration 2 nM; settings: filed as antagonist, Compound concentration 10.0 uM
[14] = target: T1, Muscarinic acetylcholine receptor M4 (Homo sapiens) (UniProt P08173); experiment: M4 (h) Eurofins-Cerep binding assay; set-up: ligand concentration 0.2 nM; settings: filed as antagonist, Compound concentration 10.0 uM
T1 sequence (whole entry): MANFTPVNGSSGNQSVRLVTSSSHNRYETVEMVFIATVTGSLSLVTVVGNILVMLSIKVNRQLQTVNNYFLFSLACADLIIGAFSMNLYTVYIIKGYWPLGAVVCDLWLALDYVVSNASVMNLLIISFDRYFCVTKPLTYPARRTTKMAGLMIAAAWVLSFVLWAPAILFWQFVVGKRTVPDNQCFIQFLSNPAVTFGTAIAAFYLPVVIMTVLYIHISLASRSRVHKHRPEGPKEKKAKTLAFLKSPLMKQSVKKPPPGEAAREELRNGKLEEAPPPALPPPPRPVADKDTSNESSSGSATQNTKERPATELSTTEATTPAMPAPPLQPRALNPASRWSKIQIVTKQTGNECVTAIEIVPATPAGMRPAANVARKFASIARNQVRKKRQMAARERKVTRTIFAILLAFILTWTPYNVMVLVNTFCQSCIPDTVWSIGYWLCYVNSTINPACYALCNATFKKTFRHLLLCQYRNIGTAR

[15] = target: 5-hydroxytryptamine receptor 2A (Homo sapiens) (UniProt P28223); experiment: 5-HT2A (h) Eurofins-Cerep binding assay; set-up: ligand concentration 0.5 nM; settings: filed as antagonist, Compound concentration 10.0 uM
[16] = target: Glutamate NMDA receptor (Rattus norvegicus) (UniProt P35439+Q00959+Q00960+Q00961+Q62645+Q8VHN2+Q9R1M7); experiment: PCP Eurofins-Cerep binding assay; type: protein-complex assay; set-up: ligand concentration 10 nM; settings: filed as antagonist, Compound concentration 10.0 uM
[17] = target: Motilin receptor (Homo sapiens) (UniProt O43193); experiment: motilin (h Eurofins-Cerep binding assay; set-up: ligand concentration 0.05 nM; settings: filed as agonist, Compound concentration 10.0 uM
[18] = target: Histamine H1 receptor (Homo sapiens) (UniProt P35367); experiment: H1 (h) Eurofins-Cerep binding assay; set-up: ligand concentration 1 nM; settings: filed as antagonist, Compound concentration 10.0 uM
Sequence of Histamine H1 receptor (Homo sapiens) (P35367 whole entry): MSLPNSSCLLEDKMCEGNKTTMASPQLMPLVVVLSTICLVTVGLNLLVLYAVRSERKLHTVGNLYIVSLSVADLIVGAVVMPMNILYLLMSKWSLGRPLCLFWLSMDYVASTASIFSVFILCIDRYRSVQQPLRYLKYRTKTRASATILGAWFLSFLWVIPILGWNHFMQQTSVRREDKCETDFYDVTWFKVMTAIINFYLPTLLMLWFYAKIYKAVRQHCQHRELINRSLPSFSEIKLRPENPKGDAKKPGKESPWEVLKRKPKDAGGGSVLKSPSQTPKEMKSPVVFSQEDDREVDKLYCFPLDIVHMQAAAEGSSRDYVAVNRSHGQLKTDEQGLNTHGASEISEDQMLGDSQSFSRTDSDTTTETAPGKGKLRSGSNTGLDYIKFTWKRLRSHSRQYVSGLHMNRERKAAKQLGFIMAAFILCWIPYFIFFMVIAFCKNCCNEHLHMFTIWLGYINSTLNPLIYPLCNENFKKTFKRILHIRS

[19] = target: Cholecystokinin receptor type A (Homo sapiens) (UniProt P32238); experiment: CCK1 (CCKA) (h) Eurofins-Cerep binding assay; set-up: ligand concentration 0.08 nM; settings: filed as agonist, Compound concentration 10.0 uM
Sequence of Cholecystokinin receptor type A (Homo sapiens) (P32238 whole entry): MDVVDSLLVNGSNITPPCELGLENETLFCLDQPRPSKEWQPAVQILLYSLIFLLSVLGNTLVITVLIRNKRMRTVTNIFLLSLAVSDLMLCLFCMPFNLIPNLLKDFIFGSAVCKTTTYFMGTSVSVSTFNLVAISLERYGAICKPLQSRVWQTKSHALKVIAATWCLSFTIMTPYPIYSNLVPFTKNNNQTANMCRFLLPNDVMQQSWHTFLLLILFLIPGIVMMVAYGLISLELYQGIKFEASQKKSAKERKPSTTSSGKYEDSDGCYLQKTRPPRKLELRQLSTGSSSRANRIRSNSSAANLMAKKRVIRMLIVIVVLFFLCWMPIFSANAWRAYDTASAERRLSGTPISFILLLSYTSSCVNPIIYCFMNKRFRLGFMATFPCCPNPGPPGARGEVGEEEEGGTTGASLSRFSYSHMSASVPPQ

[20] = target: Adenosine receptor A2a (Homo sapiens) (UniProt P29274); experiment: A2A (h) Eurofins-Cerep binding assay; set-up: ligand concentration 6 nM; settings: filed as agonist, Compound concentration 10.0 uM
Sequence of Adenosine receptor A2a (Homo sapiens) (P29274 whole entry): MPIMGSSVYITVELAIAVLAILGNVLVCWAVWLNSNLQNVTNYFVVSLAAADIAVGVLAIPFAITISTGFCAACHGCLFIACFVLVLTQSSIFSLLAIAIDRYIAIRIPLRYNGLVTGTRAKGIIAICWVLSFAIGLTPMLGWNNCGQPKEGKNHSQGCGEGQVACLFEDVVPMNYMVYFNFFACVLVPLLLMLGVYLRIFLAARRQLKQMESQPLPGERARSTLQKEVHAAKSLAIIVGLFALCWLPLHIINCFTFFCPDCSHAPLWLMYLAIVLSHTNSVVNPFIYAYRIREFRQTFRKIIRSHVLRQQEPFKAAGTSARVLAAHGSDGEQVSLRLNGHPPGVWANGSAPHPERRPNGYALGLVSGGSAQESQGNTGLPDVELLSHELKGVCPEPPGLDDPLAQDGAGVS

[21] = target: Neuropeptide Y receptor type 1 (Homo sapiens) (UniProt P25929); experiment: Y1 (h) Eurofins-Cerep binding assay; set-up: ligand concentration 0.025 nM; settings: filed as agonist, Compound concentration 10.0 uM
[22] = target: 5-hydroxytryptamine receptor 7 (Homo sapiens) (UniProt P34969); experiment: 5-HT7 (h) Eurofins-Cerep binding assay; set-up: ligand concentration 4 nM; settings: filed as agonist, Compound concentration 10.0 uM
Sequence of 5-hydroxytryptamine receptor 7 (Homo sapiens) (P34969 whole entry): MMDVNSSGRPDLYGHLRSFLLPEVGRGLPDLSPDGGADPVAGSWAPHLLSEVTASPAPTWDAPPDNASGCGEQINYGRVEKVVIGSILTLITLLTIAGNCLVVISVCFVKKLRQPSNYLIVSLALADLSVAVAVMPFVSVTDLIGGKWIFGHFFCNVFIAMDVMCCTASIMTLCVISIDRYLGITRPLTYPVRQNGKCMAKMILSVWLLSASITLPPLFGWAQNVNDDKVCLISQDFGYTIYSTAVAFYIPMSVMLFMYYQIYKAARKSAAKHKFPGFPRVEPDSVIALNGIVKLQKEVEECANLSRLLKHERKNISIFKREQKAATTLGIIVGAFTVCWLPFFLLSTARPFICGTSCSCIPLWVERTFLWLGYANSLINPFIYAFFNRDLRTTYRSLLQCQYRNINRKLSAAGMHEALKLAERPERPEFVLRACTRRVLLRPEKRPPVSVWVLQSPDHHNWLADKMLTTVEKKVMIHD

[23] = target: Muscarinic acetylcholine receptor M1 (Homo sapiens) (UniProt P11229); experiment: M1 (h) Eurofins-Cerep binding assay; set-up: ligand concentration 2 nM; settings: filed as antagonist, Compound concentration 10.0 uM
Sequence of Muscarinic acetylcholine receptor M1 (Homo sapiens) (P11229 whole entry): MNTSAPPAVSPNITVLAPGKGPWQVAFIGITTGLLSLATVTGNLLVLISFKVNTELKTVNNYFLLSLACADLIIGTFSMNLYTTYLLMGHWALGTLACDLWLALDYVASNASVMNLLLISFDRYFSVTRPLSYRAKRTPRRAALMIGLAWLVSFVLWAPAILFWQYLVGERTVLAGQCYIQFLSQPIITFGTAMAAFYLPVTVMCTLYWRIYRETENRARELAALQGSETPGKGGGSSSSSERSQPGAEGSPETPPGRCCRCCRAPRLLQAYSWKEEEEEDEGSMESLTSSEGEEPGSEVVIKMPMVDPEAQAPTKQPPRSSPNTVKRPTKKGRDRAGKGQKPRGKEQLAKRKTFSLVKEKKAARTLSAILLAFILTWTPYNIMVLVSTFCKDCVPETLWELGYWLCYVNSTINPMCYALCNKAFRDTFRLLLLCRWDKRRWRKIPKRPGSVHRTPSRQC

[24] = target: Urotensin-2 receptor (Homo sapiens) (UniProt Q9UKP6); experiment: UT (h) Eurofins-Cerep binding assay; set-up: ligand concentration 0.1 nM; settings: filed as agonist, Compound concentration 10.0 uM
[25] = target: T2, 5-hydroxytryptamine receptor 3A (Homo sapiens) (UniProt P46098); experiment: 5-HT3 (h) Eurofins-Cerep binding assay; set-up: ligand concentration 0.5 nM; settings: filed as antagonist, Compound concentration 10.0 uM
T2 sequence (whole entry): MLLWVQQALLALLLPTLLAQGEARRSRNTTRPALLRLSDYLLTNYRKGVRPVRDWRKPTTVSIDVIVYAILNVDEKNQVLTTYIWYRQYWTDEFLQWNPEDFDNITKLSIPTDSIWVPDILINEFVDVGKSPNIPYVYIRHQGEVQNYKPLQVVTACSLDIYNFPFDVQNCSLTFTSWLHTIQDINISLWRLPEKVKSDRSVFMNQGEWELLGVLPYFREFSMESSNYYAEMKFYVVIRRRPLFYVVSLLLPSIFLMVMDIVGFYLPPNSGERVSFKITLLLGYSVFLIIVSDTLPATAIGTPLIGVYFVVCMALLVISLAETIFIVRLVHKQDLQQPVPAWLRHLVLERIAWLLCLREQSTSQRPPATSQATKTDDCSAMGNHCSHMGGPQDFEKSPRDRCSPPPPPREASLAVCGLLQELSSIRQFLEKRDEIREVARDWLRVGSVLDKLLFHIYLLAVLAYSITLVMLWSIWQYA

[26] = target: L-type Ca2+ channel (diltiazem site, benzothiazepines) (Rattus norvegicus, UniProt P22002+P27732+Q02485); experiment: Ca2+ channel (L, diltiazem site) (benzothiazepines) Eurofins-Cerep binding assay; type: protein assay; set-up: incubation time 120 min, incubation temperature RT, ligand concentration 15 nM; settings: rat cerebral cortex, probe [3H]diltiazem (15 nM), compound concentration 10 uM, read-out: % Inhibition of Control Specific Binding (Mean n=2)
[27] = target: voltage-gated Na+ channel (site 2) (Rattus norvegicus, UniProt F1LQQ7+O08562+O88420+O88457+P04774+P04775+P08104+P15389+P15390+Q62968); experiment: Na+ channel (site 2) Eurofins-Cerep binding assay; type: protein assay; set-up: incubation time 60 min, incubation temperature 37°C, ligand concentration 10 nM; settings: rat cerebral cortex, probe [3H]batrachotoxin (10 nM), compound concentration 10 uM, read-out: % Inhibition of Control Specific Binding (Mean n=2)
[28] = target: Bcl-2-like protein 1 (Homo sapiens, UniProt Q07817); experiment: Time-resolved fluorescence energy transfer (TR-FRET) with BCL2L1
Sequence of Bcl-2-like protein 1 (Q07817 whole entry): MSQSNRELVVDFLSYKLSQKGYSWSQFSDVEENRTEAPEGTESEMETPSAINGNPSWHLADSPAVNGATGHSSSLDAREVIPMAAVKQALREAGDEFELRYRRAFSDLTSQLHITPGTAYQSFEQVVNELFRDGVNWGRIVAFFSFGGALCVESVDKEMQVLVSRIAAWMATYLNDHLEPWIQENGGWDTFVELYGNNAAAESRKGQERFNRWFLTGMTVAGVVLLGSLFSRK

SMILES: O=C(Nc1nc2ccccc2s1)c1cccc2c1CN(c1nc(C(=O)O)c(CCOc3ccc(-n4ncc5cncnc54)cc3)s1)CC2 [A-1107969]
- % Inhibition of Control Specific Binding (Mean n=2) [1]: 15.8%
- % Inhibition of Control Specific Binding (Mean n=2) [2]: -0.4%
- % Inhibition of Control Specific Binding (Mean n=2) [3]: -14.8%
- % Inhibition of Control Specific Binding (Mean n=2) [4]: 54%
- % Inhibition of Control Specific Binding (Mean n=2) [5]: 17%
- % Inhibition of Control Specific Binding (Mean n=2) [6]: -44.2%
- % Inhibition of Control Specific Binding (Mean n=2) [7]: 8.7%
- % Inhibition of Control Specific Binding (Mean n=2) [8]: -4%
- % Inhibition of Control Specific Binding (Mean n=2) [9]: -4.4%
- % Inhibition of Control Specific Binding (Mean n=2) [10]: -9.4%
- % Inhibition of Control Specific Binding (Mean n=2) [11]: -12.1%
- % Inhibition of Control Values (Mean n=2) [12]: 14.5%
- % Inhibition of Control Specific Binding (Mean n=2) [13]: -2.3%
- % Inhibition of Control Specific Binding (Mean n=2) [14]: 8.6%
- % Inhibition of Control Specific Binding (Mean n=2) [15]: -0.6%
- % Inhibition of Control Specific Binding (Mean n=2) [16]: 2.8%
- % Inhibition of Control Specific Binding (Mean n=2) [17]: 2.2%
- % Inhibition of Control Specific Binding (Mean n=2) [18]: -9.3%
- % Inhibition of Control Specific Binding (Mean n=2) [19]: 68.9%
- % Inhibition of Control Specific Binding (Mean n=2) [20]: 28.3%
- % Inhibition of Control Specific Binding (Mean n=2) [21]: -0.4%
- % Inhibition of Control Specific Binding (Mean n=2) [22]: 11.4%
- % Inhibition of Control Specific Binding (Mean n=2) [23]: -1.6%
- % Inhibition of Control Specific Binding (Mean n=2) [24]: 62.2%
- % Inhibition of Control Specific Binding (Mean n=2) [25]: -5.7%
- inhibition at 120 min, 10 µM [26]: 16.2%
- inhibition at 60 min, 10 µM [27]: 3.3%
- IC50 [28]: 270 nM (not active)

SMILES: CN(C)CC#Cc1ccc(OCCCc2sc(N3CCc4cccc(C(=O)Nc5nc6ccccc6s5)c4C3)nc2C(=O)O)c(F)c1 [A-1155463]
- % Inhibition of Control Specific Binding (Mean n=2) [1]: 27.4%
- % Inhibition of Control Specific Binding (Mean n=2) [2]: 1.4%
- % Inhibition of Control Specific Binding (Mean n=2) [3]: 32.8%
- % Inhibition of Control Specific Binding (Mean n=2) [4]: 71.6%
- % Inhibition of Control Specific Binding (Mean n=2) [5]: 34.4%
- % Inhibition of Control Specific Binding (Mean n=2) [6]: -46.8%
- % Inhibition of Control Specific Binding (Mean n=2) [7]: 20.1%
- % Inhibition of Control Specific Binding (Mean n=2) [8]: 6.7%
- % Inhibition of Control Specific Binding (Mean n=2) [9]: 17.4%
- % Inhibition of Control Specific Binding (Mean n=2) [10]: -6.8%
- % Inhibition of Control Specific Binding (Mean n=2) [11]: -1.8%
- % Inhibition of Control Values (Mean n=2) [12]: 7.1%
- % Inhibition of Control Specific Binding (Mean n=2) [13]: 8.5%
- % Inhibition of Control Specific Binding (Mean n=2) [14]: 13.8%
- % Inhibition of Control Specific Binding (Mean n=2) [15]: 44.3%
- % Inhibition of Control Specific Binding (Mean n=2) [16]: 7.8%
- % Inhibition of Control Specific Binding (Mean n=2) [17]: -21.6%
- % Inhibition of Control Specific Binding (Mean n=2) [18]: 69.2%
- % Inhibition of Control Specific Binding (Mean n=2) [19]: 98.9%
- % Inhibition of Control Specific Binding (Mean n=2) [20]: 51.8%
- % Inhibition of Control Specific Binding (Mean n=2) [21]: 12.5%
- % Inhibition of Control Specific Binding (Mean n=2) [22]: 16.9%
- % Inhibition of Control Specific Binding (Mean n=2) [23]: 19.1%
- % Inhibition of Control Specific Binding (Mean n=2) [24]: 94.9%
- % Inhibition of Control Specific Binding (Mean n=2) [25]: 2%
- inhibition at 120 min, 10 µM [26]: 10.8%
- inhibition at 60 min, 10 µM [27]: 32.3%
- IC50 [28]: 0.55 nM (active)
